From article PMC11449324, “Functional comparison of human and murine equilibrative nucleobase transporter 1” (PLOS ONE, 2024) come the findings set out here.

For experiment [1], the target named is T1, hENBT1 (SLC43A3-encoded human ENBT1) (Homo sapiens, UniProt Q8NBI5).
T1 construct: Oligonucleotides corresponding to the coding region of SLC43A3 (NM_001278201) or slc43a3 (NM_021398); expressed in transfected cells; HEK293-hSLC43A3
T1 sequence (Q8NBI5 1-491): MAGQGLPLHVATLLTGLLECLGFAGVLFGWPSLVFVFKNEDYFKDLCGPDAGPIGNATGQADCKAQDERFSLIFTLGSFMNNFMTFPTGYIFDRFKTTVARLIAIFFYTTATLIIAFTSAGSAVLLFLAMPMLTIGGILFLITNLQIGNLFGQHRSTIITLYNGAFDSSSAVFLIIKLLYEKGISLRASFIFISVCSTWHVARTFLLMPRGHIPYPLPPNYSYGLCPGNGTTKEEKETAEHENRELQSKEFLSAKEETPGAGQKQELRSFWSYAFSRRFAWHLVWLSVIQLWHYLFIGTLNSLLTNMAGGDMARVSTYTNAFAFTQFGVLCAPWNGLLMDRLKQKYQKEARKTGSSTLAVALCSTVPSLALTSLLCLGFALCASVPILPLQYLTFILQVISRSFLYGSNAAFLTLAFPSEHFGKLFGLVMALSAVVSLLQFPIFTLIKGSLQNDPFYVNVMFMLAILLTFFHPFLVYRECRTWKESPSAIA
Kind of experiment: Radiolabelled substrate uptake (oil-stop, 2 s) in HEK293-hSLC43A3 cells. The format is cell-based. The procedure:
Harvested cells were suspended in nominally sodium-free N-methyl-D-glucamine (NMG) buffer (140 mM NMG, 5 mM KCl, 4.2 mM KHCO3, 0.36 mM K2HPO4, 0.44 mM KH2PO4, 0.5 mM MgCl2, 1.3 mM CaCl2, 10 mM HEPES, pH 7.4), to minimize potential contribution of sodium-dependent concentrative nucleoside transporter-mediated uptake. Additionally, cells were incubated for 15 minutes at room temperature with 10 μM dipyridamole (DY), an equilibrative nucleoside transporter (ENT) inhibitor, to block equilibrative nucleoside transporter–mediated uptake. The substrate uptake assay was initiated by adding 250 μL cell suspension to 250 μL [^3H] labeled substrate, layered over 21:4 silicone:mineral oil (200 μL) in 1.5 mL microcentrifuge tubes (conducted at room temperature). The uptake reaction was terminated after 2 seconds by centrifugation of the cells through the oil layer at ~10,000 g. […] The resulting cell pellet was digested in 250 μL 1 M NaOH overnight (~16 hours), with 220 μL aliquots of digested cells assessed for radioactive content using standard liquid scintillation counting techniques in a Beckman Coulter LS6500 scintillation system (Brea, CA).
In transfected-HEK293 cell lines, total uptake was defined as uptake of radiolabeled substrate in cells overexpressing recombinant hENBT1 or mENBT1. […] ENBT1-mediated uptake was calculated as total uptake minus the non-mediated uptake. […]

The test system of a further experiment is HEK293-mslc43a3 cells. Description: MTT cell viability assay, HEK293-mslc43a3. The format is cell-based, human. The method, then: Transfected-HEK293, MOLT-4, and L1210 cells were seeded into 24-well plates at a density of 1.1x10^5 cells per well in complete culture medium. […] Medium containing no cells was used to determine spontaneous MTT reduction (background). In transfected-HEK293 cells, media was removed via a vacuum-powered aspirator and replaced with 150 μL of Dulbecco’s phosphate buffered saline (DPBS—137 mM NaCl, 2.7 mM KCl, 6.3 mM Na2HPO4, 1.5 mM KH2PO4, 0.5 mM MgCl2, 0.9 mM CaCl2, pH 7.4) containing MTT (1 mg/mL) for 90 minutes at 37°C. In MOLT-4 and L1210, cell suspension was transferred to 1.5 mL microcentrifuge tubes and centrifuged for 10 minutes at 3000 rcf. Following centrifugation, media was removed via gentle pipetting and replaced with 150 μL of DPBS containing MTT (1 mg/mL) for 90 minutes at 37°C. Microcentrifuge tubes were centrifuged again for 15 minutes at 23,500 rcf, and then DPBS containing MTT was removed via a vacuum-powered aspirator. The resultant formazan crystals were solubilized in 500 μL of DMSO and transferred to a 96-well plate in 200 μL duplicates. Absorbance was measured at 570 nm, in a SpectraMax® i3x Multi-Mode Detection Platform (Molecular Devices, San Jose, CA). After background subtraction, % cell viability was calculated as the ratio of absorbance in the presence of test compound to that measured with vehicle alone (X 100).
Background: Tetrazolium dyes change colour on reduction, which living cells bring about.

For a further experiment, the target named is T2, hENBT1 (Homo sapiens, UniProt Q8NBI5).
T2 construct: Oligonucleotides corresponding to the coding region of SLC43A3 (NM_001278201) or slc43a3 (NM_021398); expressed in transfected cells; HEK293-hSLC43A3
T2 sequence (Q8NBI5 1-491): T1 sequence (Q8NBI5 1-491)
Kind of experiment: Inhibition of ENBT1-mediated substrate uptake in HEK293-hSLC43A3 cells. It counts as cell-based. The method, then:
Harvested cells were suspended in nominally sodium-free N-methyl-D-glucamine (NMG) buffer (140 mM NMG, 5 mM KCl, 4.2 mM KHCO3, 0.36 mM K2HPO4, 0.44 mM KH2PO4, 0.5 mM MgCl2, 1.3 mM CaCl2, 10 mM HEPES, pH 7.4), to minimize potential contribution of sodium-dependent concentrative nucleoside transporter-mediated uptake. Additionally, cells were incubated for 15 minutes at room temperature with 10 μM dipyridamole (DY), an equilibrative nucleoside transporter (ENT) inhibitor, to block equilibrative nucleoside transporter–mediated uptake. The substrate uptake assay was initiated by adding 250 μL cell suspension to 250 μL [^3H] labeled substrate, layered over 21:4 silicone:mineral oil (200 μL) in 1.5 mL microcentrifuge tubes (conducted at room temperature). The uptake reaction was terminated after 2 seconds by centrifugation of the cells through the oil layer at ~10,000 g. This is the minimum incubation time achievable with this oil-stop technique, and it was found in previous studies that these short incubation times were necessary to assess the kinetics of this transporter. The aqueous layer was removed via vacuum-powered aspirator, and the tube was washed with 1 mL of NMG buffer prior to removal of the oil layer. The resulting cell pellet was digested in 250 μL 1 M NaOH overnight (~16 hours), with 220 μL aliquots of digested cells assessed for radioactive content using standard liquid scintillation counting techniques in a Beckman Coulter LS6500 scintillation system (Brea, CA).
To assess the ability of compounds to inhibit substrate uptake, cells were incubated with the inhibitor for 15 minutes prior to initiating the uptake assay, or exposed to the cells simultaneously with the radiolabelled substrate. […] After subtraction of the non-mediated uptake component, the degree of inhibition was calculated as the ratio of cellular accumulation in the presence of test compound to that measured in its absence (X 100).
Each assay was repeated 5–6 times using independent cell isolations and reagent preparations. In addition, within each assay, there were two or three technical replicates (using the same reagents and cells) that were averaged to obtain a single data point. Nonlinear curves were fitted to data (presented as mean ± SD from the 5–6 independent experiments), and statistical analyses were done using GraphPad Prism 10 software. In all cases, if the P-value determined from a statistical test was less than 0.05, the null hypothesis was rejected and the alternative hypothesis was favoured. Significant differences between groups were assessed using either Student’s t-test or ordinary one- or two-way analysis of variance (ANOVA) followed by a post hoc Šidák multiple comparison test, as appropriate. For influx and cell viability analyses, significant differences in Km and EC50 value, respectively, between the hENBT1 and mENBT1 data sets, were determined by the extra sum-of-squares F test. For inhibition analyses, the Ki values were determined from the IC50 values using the specified substrate concentration [S], based on the Cheng-Prusoff equation Ki = IC50/(1 + [S]/Km) and experimentally obtained Km values.

Like-named read-outs stand apart in the source and are kept apart here.

Regarding `Sc1ncnc2nc[nH]c12` [6-MP, 6-Mercaptopurine], in experiment [1], the “6-MP Km relative to adenine Km” value is listed as 3 fold and the “6-MP Vmax relative to adenine Vmax” value was 3 fold. Besides, the “shift in EC50 (increased sensitivity) relative to HEK293-EV cells” value with HEK293-mslc43a3 cells (HEK293-mslc43a3 vs HEK293-EV) is listed as 19 fold. The compound also showed an EC50 in the experiment on HEK293-mslc43a3 cells (Homo sapiens, HEK293-mslc43a3, 48 h, MTT, first-phase EC50 where biphasic) of 0.96 ± 0.28 µM. Also, on hENBT1 (HEK293-hSLC43A3, 30 μM [3H]adenine, 2 seconds, Cheng-Prusoff, read-out: Ki for inhibition of ENBT1-mediated [3H]adenine uptake), the inhibition constant Ki was found to be 5900 ± 700 µM. Also, the “inhibition of ENBT1-mediated [3H]adenine uptake” value against hENBT1 (at highest concentration of 6-MP tested (1 mM), HEK293-hSLC43A3) is given as “complete inhibition was not obtained”. On hENBT1 (hENBT1), the “Ki relative to its Km for the transporter” value was found to be 30 fold.
On hENBT1, `Nc1ncnc2[nH]cnc12` [adenine, Adenine] showed an inhibition constant (Ki) of 25 ± 9 µM. Besides, the “inhibition of ENBT1-mediated [14C]6-MP uptake” value against hENBT1 (at 1 mM adenine, HEK293-hSLC43A3) was “near complete inhibition”.

A word on the EC50: it is the concentration that produces a half-maximal response. High values mean weaker potency, low ones greater potency. A word on the Ki: it is the dissociation constant of the complex between target and ligand, obtained from inhibition or displacement.
